# According to PubChem BioAssay AID2060896 (Molecular Pharmacology Branch, DTP, NCI, 2025):
# Tested on: 941728-121-R-J1-PDC complex spheroid viability
# Experiment: Anticancer human tumor 941728-121-R-J1-PDC patient-derived lung adenocarcinoma cell line growth inhibition [RAS]
# Settings: for IC50: curve of first compound; for viability, T/C: stronger effect = lower value
# Excerpt: RAS pathway inhibitors in Combinations in Complex Spheroids
# A high-throughput screen of multi-cell type tumor spheroids was designed to identify active combinations of RAS pathway inhibitors and targeted small molecules. Complex spheroids include a stromal component modeled by human endothelial cells (HUVEC) and fibroblasts modeled by human mesenchymal stem cells (MSCs). The concentration ranges selected for each drug and investigational agent were based upon clinically achievable concentrations if the clinical Cmax of the agent was known.
# Compounds. The drugs and investigational agents: abemaciclib (NSC768073), cobimetinib (NSC768068), divarasib (GDC6063, NSC841802), docetaxel (NSC628503), GDC-1971 (RLY-1971, NSC841576), gemcitabine (NSC613327), inavolisib (NSC800729), ipatasertib (NSC767898), KB-0742 (NSC834161), MRTX-1133 (NSC836407), osimertinib (NSC779217), RMC-4630 (NSC839698), RMC-6236 (NSC851965), RMC-6291 (NSC852671), Ro-3306 (NSC812927), sapanisertib (NSC764658), SN-38 (NSC673596), staurosporine (NSC755774), SY5609 (NSC837396), and tovorafenib (DAY101, NSC766906), were obtained from the National Cancer Institute (NCI) Developmental Therapeutics Program Chemical Repository. The FDA-approved anticancer drug set is available from the NCI Developmental Therapeutics Program. […] The stock solutions were prepared in dimethyl sulfoxide (DMSO, Sigma-Aldrich, St. Louis, MO, cat. D2650) at 800-fold the tested concentration and stored at -70 degrees C prior to their use. All drugs and investigational agents were tested over a range starting from a high concentration at or near the clinical Cmax and decreasing in half-log increments. If the clinical Cmax for an agent had not been determined, the highest concentration tested was 10 microM.
# Cell Culture. All cells were maintained in an incubator at 37 degrees C and 5% CO2 with 95% humidity. The PDC lines were cultured according to standard operating procedures established by the NCI PDMR. All PDCs were thawed and cultured in Matrigel-coated flasks prepared with a working solution of 1X Ham's F-12 nutrient mix, without supplementation (Invitrogen, Waltham, MA, cat. 11765054), 100 U/mL penicillin-streptomycin (Invitrogen, cat. 15140122), and 2.5% Matrigel (Corning Inc., Corning, NY, cat. 354248) for the first three passages. The 362531-283-R-J2-PDC and 782815-120-R-J1-PDC lines were cultured in 6C/Colon 1B media, which includes advanced DMEM/F-12 (Thermo Fisher Scientific, cat. 12634028), 10 mM HEPES (Thermo Fisher Scientific, cat. 15630080), 1X GlutaMAX supplement (Thermo Fisher Scientific, cat. 35050061), 0.1 mg/mL primocin (InvivoGen, San Diego, CA, cat. ant-pm-2), 10% defined fetal bovine serum, heat inactivated (HyClone Laboratories Inc., Logan, UT, cat. SH30070.03HI), 50% L-WRN conditioned media (ATCC, cat. CRL-3276), 1.25 mM N-Acetyl-L-cysteine (Sigma-Aldrich, cat. A9165), 10 mM nicotinamide (Sigma-Aldrich, cat. N0636), 1X B-27 supplement (Thermo Fisher Scientific, cat. 17504044), 1X N-2 supplement (Thermo Fisher Scientific, cat. 17502048), 50 ng/mL human EGF (Thermo Fisher Scientific, cat. PHG0311), and 10 microM Y-27632 dihydrochloride (Tocris Bioscience, cat. 1254). The K12877-001-R-J1-PDC line was cultured in 6I media, which includes all 6C/Colon 1B media plus 10 ng/mL human FGF-10 (PeproTech, cat. 100-26), 1 ng/mL human FGF-2 (PeproTech, cat. 100-18B), 1 µM prostaglandin E2 (Tocris Bioscience, cat. 2296), […] hydrocortisone (Sigma-Aldrich, cat. H4001), and […] bovine insulin (Sigma-Aldrich, cat. I6634). The K86415-001-R-J1-PDC line was cultured in 6D media, which includes all 6C/Colon 1B media components minus the L-WRN conditioned media. The 485176-168-R4-J1-PDC was cultured in PANC media, which includes all 6C/Colon 1B media plus 100 ng/mL human FGF-10 (PeproTech, cat. 100-26), 500 nM SB-431542 (Selleckchem, cat. S1067), and 10 nM gastrin (Tocris Bioscience, cat. 3006). […]
# [1] = second compound 0.0316 µM, first compound 0.0316 µM
# [2] = second compound 0.0316 µM, first compound 0.1 µM
# [3] = second compound 0.0316 µM, first compound 0.316 µM
# [4] = second compound 0.0316 µM, first compound 1 µM
# [5] = second compound 0.1 µM, first compound 0.0316 µM
# [6] = second compound 0.1 µM, first compound 0.1 µM
# [7] = second compound 0.1 µM, first compound 0.316 µM
# [8] = second compound 0.1 µM, first compound 1 µM
# [9] = second compound 0.316 µM, first compound 0.0316 µM
# [10] = second compound 0.316 µM, first compound 0.1 µM
# [11] = second compound 0.316 µM, first compound 0.316 µM
# [12] = second compound 0.316 µM, first compound 1 µM
# [13] = second compound 1 µM, first compound 0.0316 µM
# [14] = second compound 1 µM, first compound 0.1 µM
# [15] = second compound 1 µM, first compound 0.316 µM
# [16] = second compound 1 µM, first compound 1 µM
# [17] = second compound 3.16 µM, first compound 0.0316 µM
# [18] = second compound 3.16 µM, first compound 0.1 µM
# [19] = second compound 3.16 µM, first compound 0.316 µM
# [20] = second compound 3.16 µM, first compound 1 µM
# [21] = second compound 10 µM, first compound 0.0316 µM
# [22] = second compound 10 µM, first compound 0.1 µM
# [23] = second compound 10 µM, first compound 0.316 µM
# [24] = second compound 10 µM, first compound 1 µM
# 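Also: spheroids exposed to compounds for 7 days before readout.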
# 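For viability, T/C in this document: 100% = DMSO vehicle control viability.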
smiles,measurement,setting,value
CCN1CCN(Cc2ccc(Nc3ncc(F)c(-c4cc(F)c5nc(C)n(C(C)C)c5c4)n3)nc2)CC1 + C#Cc1c(F)ccc2cc(O)cc(-c3ncc4c(N5CC6CCC(C5)N6)nc(OCC56CCCN5CC(F)C6)nc4c3F)c12,IC50,second compound 0.0316 µM,> 1000 nM
same,IC50,second compound 0.1 µM,> 1000 nM
same,IC50,second compound 0.316 µM,> 1000 nM
same,IC50,second compound 1 µM,< 3.16 nM
same,IC50,second compound 3.16 µM,< 3.16 nM
same,IC50,second compound 10 µM,< 3.16 nM
same,"viability, T/C","second compound 0.0316 µM, first compound 0.00316 µM",75.4%
same,"viability, T/C","second compound 0.0316 µM, first compound 0.01 µM",70.4%
same,"viability, T/C",[1],58%
same,"viability, T/C",[2],49%
same,"viability, T/C",[3],58%
same,"viability, T/C",[4],59.7%
same,"viability, T/C","second compound 0.1 µM, first compound 0.00316 µM",71.4%
same,"viability, T/C","second compound 0.1 µM, first compound 0.01 µM",62%
same,"viability, T/C",[5],52.9%
same,"viability, T/C",[6],46.7%
same,"viability, T/C",[7],55.9%
same,"viability, T/C",[8],68.9%
same,"viability, T/C","second compound 0.316 µM, first compound 0.00316 µM",55.6%
same,"viability, T/C","second compound 0.316 µM, first compound 0.01 µM",56.8%
same,"viability, T/C",[9],38.3%
same,"viability, T/C",[10],45.2%
same,"viability, T/C",[11],51%
same,"viability, T/C",[12],57.3%
same,"viability, T/C","second compound 1 µM, first compound 0.00316 µM",38.2%
same,"viability, T/C","second compound 1 µM, first compound 0.01 µM",34.7%
same,"viability, T/C",[13],31.4%
same,"viability, T/C",[14],35.5%
same,"viability, T/C",[15],41.7%
same,"viability, T/C",[16],50.1%
same,"viability, T/C","second compound 3.16 µM, first compound 0.00316 µM",28.8%
same,"viability, T/C","second compound 3.16 µM, first compound 0.01 µM",26.4%
same,"viability, T/C",[17],31.3%
same,"viability, T/C",[18],25.3%
same,"viability, T/C",[19],30.9%
same,"viability, T/C",[20],36.2%
same,"viability, T/C","second compound 10 µM, first compound 0.00316 µM",23.5%
same,"viability, T/C","second compound 10 µM, first compound 0.01 µM",20.9%
same,"viability, T/C",[21],21.9%
same,"viability, T/C",[22],19.8%
same,"viability, T/C",[23],18.4%
same,"viability, T/C",[24],16.5%
C[C@@H](NC(=O)c1ncnc(N)c1Cl)c1ncc(C(=O)Nc2cc(C(F)(F)F)c(Cl)cn2)s1 + C#Cc1c(F)ccc2cc(O)cc(-c3ncc4c(N5CC6CCC(C5)N6)nc(OCC56CCCN5CC(F)C6)nc4c3F)c12,IC50,second compound 0.0316 µM,7000 nM
same,IC50,second compound 0.1 µM,7100 nM
same,IC50,second compound 0.316 µM,2680 nM
same,IC50,second compound 1 µM,< 31.6 nM
same,IC50,second compound 3.16 µM,< 31.6 nM
same,IC50,second compound 10 µM,< 31.6 nM
same,"viability, T/C",[1],107%
same,"viability, T/C",[2],102%
same,"viability, T/C",[3],108%
same,"viability, T/C",[4],94.4%
same,"viability, T/C","second compound 0.0316 µM, first compound 3.16 µM",72.5%
same,"viability, T/C","second compound 0.0316 µM, first compound 10 µM",40%
same,"viability, T/C",[5],102%
same,"viability, T/C",[6],109%
same,"viability, T/C",[7],103%
same,"viability, T/C",[8],102%
same,"viability, T/C","second compound 0.1 µM, first compound 3.16 µM",76.3%
same,"viability, T/C","second compound 0.1 µM, first compound 10 µM",38.9%
same,"viability, T/C",[9],69.7%
same,"viability, T/C",[10],79.6%
same,"viability, T/C",[11],69.6%
same,"viability, T/C",[12],60.2%
same,"viability, T/C","second compound 0.316 µM, first compound 3.16 µM",49.2%
same,"viability, T/C","second compound 0.316 µM, first compound 10 µM",37.1%
same,"viability, T/C",[13],46.2%
same,"viability, T/C",[14],48.5%
same,"viability, T/C",[15],45.3%
same,"viability, T/C",[16],39.4%
same,"viability, T/C","second compound 1 µM, first compound 3.16 µM",38.4%
same,"viability, T/C","second compound 1 µM, first compound 10 µM",29.4%
same,"viability, T/C",[17],30%
same,"viability, T/C",[18],32.5%
same,"viability, T/C",[19],28.2%
same,"viability, T/C",[20],26.5%
same,"viability, T/C","second compound 3.16 µM, first compound 3.16 µM",30.2%
same,"viability, T/C","second compound 3.16 µM, first compound 10 µM",28.1%
same,"viability, T/C",[21],24.4%
same,"viability, T/C",[22],25.2%
same,"viability, T/C",[23],25.3%
same,"viability, T/C",[24],26.2%
same,"viability, T/C","second compound 10 µM, first compound 3.16 µM",25%
same,"viability, T/C","second compound 10 µM, first compound 10 µM",21.7%
